Reference: publication PMC8350397, “GSK137, a potent small-molecule BCL6 inhibitor with in vivo activity, suppresses antibody responses in mice” (The Journal of Biological Chemistry, 2021)

Key:
ULA cells = experiment: Cell cycle analysis, ULA; type: cell-based; details: GSK137 0.1-10 μM; for fraction of cells in G1: BI3802 1 μM, 2 or 6 days; for dead or dying cells: day 6, BI3802 1 μM
Protocol: Farage, ULA, KARPAS-422, and VAL cells were seeded into 6-well tissue culture dishes in a total volume of 6 mL at densities of 6.25 x10^3, 7.81 x10^3, 6.25 x10^3, and 1.56 x10^3 cells/mL, respectively and incubated overnight at 37 °C and 5% CO2. Cells were then treated with 0.1 µM, 1 µM, or 10 µM GSK137 or 1 µM BI3802 for 2 or 6 days at 37 °C and 5% CO2. Cell cycle analysis was performed using the Click-iT EdU Alexa Fluor 647 Flow Cytometry Assay Kit (Thermo Fisher Scientific, Waltham, MA, USA) following the manufacturer’s instructions, with volumes adjusted for a […] U-bottom plate, and with an approximately 1 hour treatment with 10 μM EdU. After EdU treatment, approximately 2x10^5 cells per well were transferred into a 96-well, non-tissue culture treated U-bottom plate and stained with 6.7µg/ml final FxCycle Violet Stain for 30 minutes incubation at room temperature. Cells were then analyzed on a flow cytometer (BD FACS Canto […] or LSR FortessaTM X-20 (Becton Dickinson, Franklin Lakes, NJ, USA)) with compensation each day using one cell line and data analyzed using FlowJo software (version 10.3). Percentages of cells in each phase of the cell cycle were then averaged across technical replicates.

splenic germinal centers = experiment: Spleen immunohistochemistry of germinal centers; type: in vivo, mouse
Protocol: Immunohistochemistry of GCs in spleens was obtained from a pilot experiment to test immunization conditions carried out at the University of Leicester using groups of C57BL/6J mice. One group of mice was immunized with TNP-KLH (100 μg) followed by treatment with GSK137 15 mg/kg by oral gavage three times per day from day -1 to day +12 (n = 3), whereas the other was treated with vehicle by oral gavage three times per day from day -1 to day +12 following immunization (n = 6). Formalin-fixed paraffin-embedded sections of mouse spleen were stained with antimouse B220/CD45R (BD Biosciences; catalog no. 550286), […] (Abcam; ab32064), and anti-Ki67 (Abcam; ab15580) antibodies using Opal Multiplex IHC detection kit (NEL810001KT; Akoya Biosciences). The sections were counterstained with 4',6-diamidino-2-phenylindole for 5 min and mounted with ProLong Diamond Antifade mountant (Invitrogen; P36970). Images were obtained using Vectra Polaris multicolor fluorescence scanner (Akoya Biosciences). Quantification was carried out by inForm image analysis software (Akoya Biosciences). Normality tests were carried out for the B220^+Ki67^+ and […]^+ data. Both datasets were normally distributed, and accordingly, statistical significance was determined by unpaired t test.

[1] = Tolerability in the immunization model (body weight, signs of toxicity, cytokines); type: in vivo, mouse
Protocol: Male CD1 mice (30–40 g, 8–9 weeks of age) were randomized into study treatment groups, housed individually and allowed to acclimatize under standard laboratory conditions for a minimum of 5 days prior to commencement of the study. Mice received food and water ad libitum. The experiment was performed in a certified dedicated in vivo experimental laboratory at the GlaxoSmithKline Medicines Research Centre, Stevenage, United Kingdom. The four treatment groups were (1) unimmunized and untreated (naive group) (n = 4); (2) intraperitoneal vehicle (n = 13), (3) GSK137 15 mg/kg (n = 14), and (4) GSK137 30 mg/kg (n = 14). Groups (2) to (4) were given intraperitoneal immunization with TNP–KLH (100 μg) on day 0, vehicle was 1% methylcellulose in water + 0.1% sodium lauryl sulphate, and compound or vehicle was given to groups (2) to (4) by oral gavage three times per day from day −1 to day +12. Blood samples were collected by tail vein for measurement of compound, IgM and IgG levels on days 0, 5, 8, and 12 ahead of immunization/first daily dose. On day 8, blood samples were also taken (n = 7) at 0.5, 1.5, 3, 5, or 7 h after first daily dose. On day 12, spleens were collected, weighed, and placed into Dulbecco's modified Eagle's medium on wet ice for analysis by flow cytometry.
To determine cytokine and chemokine levels plasma samples were analysed by electrochemiluminescence assay using a custom mouse multiplex kit (K15355K-4, Meso Scale Diagnostics (MSD), Rockville, MD, USA) to measure IFNγ, IL-6, IL-10, TNF, MCP-1, KC, IL-12, IL1b, IL-13 and IL17a according to the manufacturer’s protocol. Plates were read using an MSD Sector Imager 6000 and analysed with Discovery workbench software v4.0.11, cytokine data were back-fitted to the MSD standard curve.

Compound	fraction of cells in G1 (ULA cells)	dead or dying cells (ULA cells)	fraction of B220+ cells expressing clPARP within splenic B-cell follicles vs control (splenic germinal centers; 15 mg/kg)	number of GCs per follicle (mean ± SD) (splenic germinal centers; 15 mg/kg orally TID, C57BL/6J mice, vehicle 0.5 ± 0.11, p = 0.04)	numbers of B220+Ki-67+ cells within each GC vs vehicle (splenic germinal centers; 15 mg/kg, unpaired t test, p = 0.01)	mouse weights vs vehicle group ([1]; 15 and 30 mg/kg orally TID, over the experiment)	overt signs of toxicity ([1]; at the doses used (15 and 30 mg/kg))	levels of a panel of cytokines vs vehicle ([1]; mouse, in vivo)
CNC(=O)COc1cc2cc(Nc3nc(N4C[C@H](C)C[C@H](C)C4)ncc3Cl)ccc2n(C)c1=O [BI3802, reference compound]	increased fraction of cells in G1 at day 2	~40%	–	–	–	–	–	–
Cc1ncccc1[C@H]1C[C@@H](c2cccc3nc(N)ccc23)Nc2c(F)cnn21 [GSK137, 5-((5S,7R)-3-Fluoro-7-(2-methylpyridin-3-yl)-4,5,6,7-tetrahydropyrazolo[1,5-a]pyrimidin-5-yl)quinolin-2-amine]	modest dose and time-dependent G1 cell cycle arrest	no increase in dead or dying cells	no significant difference	0.27 ± 0.06	significant reductions	did not vary significantly	no overt signs of toxicity	either undetectable or, if detectable, did not differ significantly
